The record followed here is publication PMC12421817, “c-di-GMP regulates bacterial NAD biosynthesis via targeting the transcriptional repressor NadR” (mBio, 2025).

One data set has as its target T1, YcgR (Salmonella enterica, UniProt Q8ZP19).
T1 construct: His6-YcgR
As to the kind of experiment: UV-crosslinking with biotinylated c-di-GMP (YcgR as positive-control protein). The format is binding.

The target in a further data set is T2, NadR (Salmonella enterica, UniProt P24518).
T2 construct: N-terminal His6-tagged NadR
T2 sequence (P24518 1-410): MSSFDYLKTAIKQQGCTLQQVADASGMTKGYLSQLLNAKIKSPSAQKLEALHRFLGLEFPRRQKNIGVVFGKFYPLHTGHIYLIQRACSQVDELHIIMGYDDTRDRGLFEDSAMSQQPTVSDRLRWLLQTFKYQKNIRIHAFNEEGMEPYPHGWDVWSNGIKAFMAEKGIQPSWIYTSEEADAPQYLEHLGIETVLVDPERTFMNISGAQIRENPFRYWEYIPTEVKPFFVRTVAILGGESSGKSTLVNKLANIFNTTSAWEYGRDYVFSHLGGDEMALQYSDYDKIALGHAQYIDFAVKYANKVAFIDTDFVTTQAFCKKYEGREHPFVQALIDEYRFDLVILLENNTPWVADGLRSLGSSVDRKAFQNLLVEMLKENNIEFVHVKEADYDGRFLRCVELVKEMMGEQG
As to the kind of experiment: ITC; also UV-crosslinking with unlabeled competitor, EMSA, enzyme activity stimulation. The data set is classed as binding. (Isothermal titration calorimetry measures the heat released or taken up as one component is titrated into another.)

Data set [1] deals with T3, NadR (Salmonella enterica serovar Typhimurium) (UniProt P24518).
T3 sequence: T2 sequence (P24518 1-410)
As to the kind of experiment: EMSA. Conditions: EMSA: 50 ng DNA, 20 mM Tris pH 7.5, 100 mM NaCl, 10% glycerol, 4 mM MgCl2, 1% NP-40, 1 mM DTT, 25 uL, 20 min room temperature; 6% native PAGE, 0.5x TBE, SYBR …. (A gel shift assay detects complexes by their altered migration in electrophoresis.)

T1 sequence (Q8ZP19 whole entry): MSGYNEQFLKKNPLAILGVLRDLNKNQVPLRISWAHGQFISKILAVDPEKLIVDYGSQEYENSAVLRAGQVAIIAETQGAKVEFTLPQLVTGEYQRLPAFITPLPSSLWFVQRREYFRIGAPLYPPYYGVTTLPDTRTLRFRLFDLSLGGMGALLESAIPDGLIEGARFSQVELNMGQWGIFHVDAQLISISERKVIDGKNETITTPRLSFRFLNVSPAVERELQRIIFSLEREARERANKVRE

Turning to `Nc1nc2c(ncn2[C@@H]2O[C@@H]3COP(=O)(O)O[C@H]4[C@@H](O)[C@H](n5cnc6c(=O)[nH]c(N)nc65)O[C@@H]4COP(=O)(O)O[C@H]3[C@H]2O)c(=O)[nH]1` [c-di-GMP], at YcgR, the “UV-crosslinking with biotinylated c-di-GMP (YcgR as positive-control protein)” value is on record as “YcgR could obviously bind biotinylated c-di-GMP, while InvF, which was used as a negative control, showed no biotin-binding signal”. The same compound showed a Kd at NadR of 160 ± 20 nM. For the compound “GCTCATCGTGGCTTCTCGTTTTACTGACTTAACGAAACAACCGAATGAAAGCGTAATAAACGCCACAATCGGTTAATTTGTTTTATATGCTAAACAAGATAGCTGATTCAATAAGGAAAGTCACAATAATTACGTAGCCCCGTATCTGATGGCGGCGTAACGTCTTATCTGGCCTACGTGAGCGGTGCCGTCTGTAGGCCTGAT (double strand) [nadA-pnuC promoter]”, the binding entry in data set [1] is on record as “binds”. Take “GGTTCTTGTTTAATTTACTAAACATGGTTGCGGCAGATTAGCACTATATGGCGCTAAAAAGCACGTTATGATTTCGCTGGTGTTGTGCTTATTAAACATAAAATAAAAATACGGCGAGAGATAAACGGCAAAAAATATTTTATAGGGCAGGGTGTTAGCGTCGGATTTTGTAGTGAAATAAAGATGCTGTTAGGTTACTC (double strand) [nadB promoter]”: in data set [1], the binding result is reported as “binds”.

What is called Kd is the free concentration of one partner at which half of the binding sites on the other are occupied at equilibrium, for simple one-to-one binding.
